# Experimental data: US20220389437A1, “METHODS OF IN PLANTA TRAN[…] AXILLARY MERISTEM” (SYNGENTA CROP PROTECTION AG, priority 2019, published 2022)
# Test system: non-transgenic plants (soybean seedlings), wounded axillary areas
# Test: Glyphosate top selection dose finding: suppression of axillary meristem regeneration
# Assay type: in vivo
# Details: 10, 25, 50, 75, 100 or 200 uM applied on the wounded axillary areas, non-lethal but sufficient to suppress regeneration within 2 weeks
# Text: 1) Germination: Soybean seeds were sown in 2.5 inch pots, two seeds in each pot. 4-7 day old seedlings grown from the seeds were used for cotyledon axillary meristem transformation.
# 2) Wound axillary meristems: The axillary meristems located in the axil of cotyledons were completely removed. The stem cells located in the base of the axillary meristem were transformed using Agrobacterium as described below. To break the dormancy of the axillary meristem, the primary shoot meristem was removed at the same time, or 3-7 days' later.
# 5) Selection: To determine the glyphosate concentrations effectively suppressing axillary meristem regeneration in top selection, non-transgenic plants were used and 10 uM to 200 uM glyphosate (specifically 10, 25, 50, 75, 100, or 200 uM glyphosate) was applied on the wounded axillary areas.
compound,measurement,value
O=C(O)CNCP(=O)(O)O [glyphosate],glyphosate concentrations effectively suppressing axillary meristem regeneration in top selection,75 to 200 µM
